Source: PMC6173696, “Structural properties of a haemophore facilitate targeted elimination of the pathogen Porphyromonas gingivalis” (Nature Communications, 2018)

What was measured:
[1] = format: physicochemical; settings: aqueous haemin, 5 µM
Procedure: (§1) Spectra were recorded in 0.1 M NaCl with 0.1 M of the following buffers: citrate, pH 5.0; BisTris-HCl, pH 5.5; BisTris-HCl, pH 5.75: BisTris-HCl, pH 6.0; sodium phosphate, pH 6.5; sodium phosphate, pH 7.0; sodium phosphate, pH 7.5; Tris-HCl, pH 8.0; sodium borate, pH 9.0; sodium borate/NaOH, pH 9.8; sodium carbonate, pH 10.0 (not all titration points were collected for each protein)

HusA = experiment: Acid-alkaline transition of UV-vis spectra, haemin bound to HusA and Y164A/F mutants; format: physicochemical, Porphyromonas gingivalis; settings: haemin bound to HusA and the Y164A/F mutants
Procedure: as §1

HusA NNNA = experiment: Haemin binding to HusA mutant with all four mutations (NNNA), UV-vis and fluorescence; set-up: species or system Porphyromonas gingivalis; settings: mutant incorporating all four mutations (L123, V124, W130, Y164)
Procedure: All absorbance spectra were recorded at room temperature using 10-mm quartz cuvettes on a Shimadzu UV-1601 or Jasco V-630 spectrophotometer. Mixtures of HusA/mutant with porphyrins were prepared by dissolving porphyrin stocks in standard buffer to a final concentration of 5–20 μM with a 1–1.5 molar ratio of protein to porphyrin, as specified in the relevant figure legends. PPIX:HusA mixtures were prepared by incremental addition of 2–4 μM HusA with a 10–15 min wait after each addition of HusA.
The quenching of intrinsic tryptophan fluorescence of HusA upon porphyrin additions was measured using a Carey Eclipse Fluorescence Spectrophotometer (Agilent) set to a photo multiplier effect (PME) of 850. A 5-mm path length quartz cuvette was used and all spectra were acquired at room temperature. Excitation was set to 295 nm and emission was measured from 300 nm to 500 nm using excitation/emission slit widths of 5 nm. Binding assays were performed at a protein concentration of 1 μM HusA in standard buffer at a working volume of 0.5 mL. […] The fluorescence quenching of HusA by PPIX was investigated in a similar manner with the following difference: the fluorescence intensities of ten 1 μM HusA samples were measured each with increasing amounts of PPIX after a 2-h incubation period to allow equilibrium to be reached. […]

[2] = system: P. gingivalis wild-type W83; experiment: P8 growth inhibition under iron restriction (100 µM dipyridyl); format: cell-based, Porphyromonas gingivalis; settings: P8 at 1 µM (below the MIC)
Excerpt: Fig. 5 A prototype DPIX-conjugated antibiotic binds HusA and inhibits P. gingivalis. a The chemical structure of the deuteroporphyrin-lysine-metronidazole adduct, P8. b NMR signal intensity changes (black) and ^1H^N CSPs (red/green) for HusA upon addition of P8 (measured from ^15N-HSQC spectra shown in Supplementary Figure 21). c In silico docking of P8 to the energy minimized structure of HusA (conformer set 1), with residues experiencing NMR signal loss (orange) or CSPs (red/green) mapped to the structure (colouring as described in Fig. 2d). d Scaled and corrected fluorescence at 335 nm during titration of 1 μM of HusA with increasing concentrations of P8, haemin or DPIX. e Comparison of P8 inhibitory effect towards P. gingivalis wild-type W83 and husA mutants using checkerboard analysis. Serial dilutions of antibiotics (horizontal axis) were applied to a 96-well plate with different P. gingivalis strains (vertical axis). Serial dilutions of DPIX were also supplemented into wild-type W83 group to evaluate the competitive effect against P8. Absorption at OD600 of each well was recorded after 24 h of incubation. The OD600 of each strain grown in the absence of antibiotics was defined as 100% growth, which was applied to normalise the reading collected from other wells. […] Recovered bacteria were determined by CFU count. […]

[3] = system: H413 gingival epithelial cells; format: cell-based, Human; settings: concentrations above 0.5 µM; 1 h or 2 h
Procedure: As P8 could penetrate epithelial cells, the cell membrane integrity was tested using lactate dehydrogenase (LDH) assay. LDH is readily released following cellular membrane damage. As per manufacturer’s instructions (Thermo Fisher Scientific, Australia), H413 cells were treated with P8 at various concentrations and incubated for 1 h and 2 h, respectively. The drug solubilisation medium DMSO and metronidazole were used as controls. The positive control provided by the manufacturer was used to determine the maximal LDH release and the ratio of corrected values obtained for the experimental groups relative to maximum LDH release represented cytotoxicity. The fluorescence intensity was recorded on SpetraMax® i3 (Molecular Devices, Australia).
Supplementary Figure 23. (A) UV-vis spectra of 10 µM P8 alone and in the presence of 10 µM HusA. (B) Stability assay of P8 in the presence of gingival epithelial cell lysate. The intensity of P8 fluorescence was applied to monitor the stability of P8 in the presence of cell lysate. (C) Confocal microscope analysis of the progressive uptake of P8 by H413 gingival epithelial cell over a 2 h period.
The fluorescent P8 is shown in red and the nuclei stained by DAPI are shown in blue. Scale bar, 25 µm. (D) Lactate dehydrogenase cytotoxicity assay of H413 gingival epithelial cells treated with P8 at various concentrations for 1 h or 2 h incubation. […]

[4] = system: H413 gingival epithelial cell; format: cell-based, Human
Procedure: Human gingival epithelial cells were grown to confluence and seeded on plastic chamber slides (75 × 25 mm^2) for incubation in 5% CO2 atmosphere overnight. Bacterial cells were co-incubated with epithelial cells at 37 °C for 2 h. After exposure to the antibiotics, epithelial cells were washed in PBS and incubated in culture media containing 5% FCS for 24 h. Subsequently, samples in the chamber slides were fixed with 4% fresh paraformaldehyde in PBS for 30 min at room temperature, washed in PBS, and permeabilised by ice-cold methanol for 5 min. Samples were then blocked overnight with 10% FCS supplemented with 0.05% (v/v) Triton X-100 in PBS buffer. Intracellular P. gingivalis was stained using the primary antibody IIB2[44] and fluorochrome-conjugated secondary antibody. […] Labelled epithelial cells with invaded bacteria were detected using an Olympus FV1000 confocal laser scanning microscope. In addition, the intrinsic fluorescence of P8 allowed temporal tracking of internalisation of P8 into epithelial cells in a separate experiment. Live cell images were recorded using a DeltaVision Elite Core Microscope.
Supplementary Figure 23. (A) UV-vis spectra of 10 µM P8 alone and in the presence of 10 µM HusA. (B) Stability assay of P8 in the presence of gingival epithelial cell lysate. The intensity of P8 fluorescence was applied to monitor the stability of P8 in the presence of cell lysate. […]

Row | Compound | pKa of acid-alkaline transition [1] | pKa of acid-alkaline transition (HusA) | pKa of acid-alkaline transition (HusA; listed as haem) | binding to haemin (HusA NNNA) | susceptibility of W83 under iron restriction [2] | cell toxicity (LDH release) [3] | integrity of epithelial cells (confocal images) ([4]; 20 µM P8) | accumulation in epithelial cells ([4]; over a 2-h period)
1 | C=CC1=C(C)c2cc3[nH]c(cc4nc(cc5[nH]c(cc1n2)c(C)c5CCC(=O)O)C(CCC(=O)O)=C4C)c(C)c3C=C.[Fe+3] [haemin] | 6.7 | 6.1–6.5 | 6-6.5 | minimal binding |  |  |  | 
2 | CC1=Cc2cc3[nH]c(cc4nc(cc5[nH]c(cc1n2)cc5C)C(C)=C4CCC(=O)N[C@@H](CCCCNC(=O)OC(C)(C)C)C(=O)NCCn1c([N+](=O)[O-])cnc1C)c(CCC(=O)O)c3C [P8] |  |  |  |  | susceptible | does not induce cell toxicity | remain intact | progressive accumulation
